Assays:
ER-α in MCF-7 cells = target: T1, ER-α in MCF-7 cells (Homo sapiens, UniProt P03372); test: Breast Cancer Cell ER-α In Cell Western Assay (SP1); assay type: cell-based; settings: 4 or 24 hr post compound addition; for Emax: MCF7, SP1 antibody, read-out: ER-α In Cell Western Assay (SP1) Max Response; for DC50: SP1 antibody, read-out: ER-α In Cell Western Assay (SP1) IC50
T1 construct: endogenous in cells; host or cells: MCF-7
T1 sequence (P03372 1-595): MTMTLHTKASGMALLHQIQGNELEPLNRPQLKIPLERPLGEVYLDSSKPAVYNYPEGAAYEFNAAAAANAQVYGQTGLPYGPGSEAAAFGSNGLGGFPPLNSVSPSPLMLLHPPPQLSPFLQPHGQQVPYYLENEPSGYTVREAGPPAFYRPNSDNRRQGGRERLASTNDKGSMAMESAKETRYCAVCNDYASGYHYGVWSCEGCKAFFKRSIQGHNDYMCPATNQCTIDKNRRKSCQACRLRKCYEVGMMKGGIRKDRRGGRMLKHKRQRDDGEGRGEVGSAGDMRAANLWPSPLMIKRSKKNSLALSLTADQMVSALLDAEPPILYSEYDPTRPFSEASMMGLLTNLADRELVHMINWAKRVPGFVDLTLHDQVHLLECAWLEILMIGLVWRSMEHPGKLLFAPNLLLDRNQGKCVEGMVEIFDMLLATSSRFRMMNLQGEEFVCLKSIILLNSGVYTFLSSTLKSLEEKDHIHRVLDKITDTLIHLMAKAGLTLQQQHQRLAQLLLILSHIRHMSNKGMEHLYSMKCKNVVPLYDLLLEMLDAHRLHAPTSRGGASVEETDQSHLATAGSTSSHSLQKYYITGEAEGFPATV
Outline: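 ER-α levels quantified by in-cell western: SP1 signal normalised to DRAQ5 DNA stain, relative to untreated cells (% ER). Compounds at 0.3–0.000003 μM final, 11-point semilog series, 4 or 24 h exposure of MCF-7 cells grown in charcoal-stripped serum.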

MCF-7 cells = test: Breast Cancer Cell Viability Assays (MCF-7, CellTiter-Glo); assay type: cell-based; settings: 5 days' compound exposure; for IC50: Homo sapiens, MCF7, 120 h
Outline: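 Percent viability, background-subtracted against untreated wells, was taken from CellTiter-Glo luminescence after 5 days' exposure of MCF-7 cells. Compounds were tested at eleven semilog concentrations, final 0.3–0.000003 μM, in RPMI containing 10% FBS.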

Structure (SMILES)	Emax (ER-α in MCF-7 cells)	DC50 (ER-α in MCF-7 cells)	IC50 (MCF-7 cells)	MCF7 Viability Assay Max Response (MCF-7 cells)
O=C(/C=C/c1ccc(/C(=C(\c2ccccc2)C2CCC2)c2cccc3[nH]ncc23)cc1)NCCO [Example 183, (E)-3-(4-((E)-2-Cyclobutyl-1-(1H-indazol-4-yl)-2-phenylvinyl)phenyl)-N-(2-hydroxyethyl)acrylamide]	≥ 40%	≤ 100 nM	≤ 100 nM	++ (++ = a single % value ≧ 40%)
CC/C(=C(/c1ccc(/C=C/C(=O)Nc2nccs2)cc1)c1ccc2[nH]ncc2c1)c1ccc(F)cc1Cl [Example 185, (E)-3-(4-((E)-2-(2-Chloro-4-fluorophenyl)-1-(1H-indazol-5-yl)but-1-en-1-yl)phenyl)-N-(thiazol-2-yl)acrylamide]	≥ 40%	≤ 100 nM	≤ 100 nM	++ (++ = a single % value ≧ 40%)
O=C(/C=C/c1ccc(/C(=C(\c2ccc(F)cc2Cl)C2CCC2)c2ccc3[nH]nc(F)c3c2)cc1)Nc1nccs1 [Example 186, (E)-3-(4-((E)-2-(2-Chloro-4-fluorophenyl)-2-cyclobutyl-1-(3-fluoro-1H-indazol-5-yl)vinyl)phenyl)-N-(thiazol-2-yl)acrylamide]	≥ 40%	≤ 100 nM	≤ 100 nM	++ (++ = a single % value ≧ 40%)
O=C(/C=C/c1ccc(/C(=C(\c2ccccc2)C2CCC2)c2ccc3[nH]nc(F)c3c2)cc1)NCC(O)CO (centres unmarked) [Example 188, (E)-3-(4-((E)-2-Cyclobutyl-1-(3-fluoro-1H-indazol-5-yl)-2-phenylvinyl)phenyl)-N-(2,3-dihydroxypropyl)acrylamide]	≥ 40%	≤ 100 nM	≤ 100 nM	++ (++ = a single % value ≧ 40%)
O=C(/C=C/c1ccc(/C(=C(\c2ccccc2)C2CCC2)c2ccc3[nH]nc(F)c3c2)cc1)NC(CO)CO [Example 189, (E)-3-(4-((E)-2-Cyclobutyl-1-(3-fluoro-1H-indazol-5-yl)-2-phenylvinyl)phenyl)-N-(1,3-dihydroxypropan-2-yl)acrylamide]	≥ 40%	≤ 100 nM	≤ 100 nM	++ (++ = a single % value ≧ 40%)
CNC(=O)/C=C/c1ccc(/C(=C(\c2ccccc2)C2CCC2)c2ccc3[nH]nc(F)c3c2)cc1 [Example 190, (E)-3-(4-((E)-2-Cyclobutyl-1-(3-fluoro-1H-indazol-5-yl)-2-phenylvinyl)phenyl)-N-methylacrylamide]	≥ 40%	≤ 100 nM	≤ 100 nM	++ (++ = a single % value ≧ 40%)
O=C(/C=C/c1ccc(/C(=C(\c2ccccc2)C2CCC2)c2ccc3[nH]nc(F)c3c2)cc1)NCCCl [Example 191, (E)-N-(2-Chloroethyl)-3-(4-((E)-2-cyclobutyl-1-(3-fluoro-1H-indazol-5-yl)-2-phenylvinyl)phenyl)acrylamide]	≥ 40%	≤ 100 nM	≤ 100 nM	++ (++ = a single % value ≧ 40%)
OCC1CN=C(/C=C/c2ccc(/C(=C(\c3ccccc3)C3CCC3)c3ccc4[nH]nc(F)c4c3)cc2)O1 (centres unmarked) [Example 192, (2-((E)-4-((E)-2-Cyclobutyl-1-(3-fluoro-1H-indazol-5-yl)-2-phenylvinyl)styryl)-4,5-dihydrooxazol-5-yl)methanol]	≥ 40%	≤ 100 nM	≤ 100 nM	++ (++ = a single % value ≧ 40%)
Cc1cc(S(C)(=O)=O)ccc1/C(=C(\c1ccc(/C=C/C(=O)O)cc1)c1ccc2[nH]nc(F)c2c1)C1CCC1 [Example 195, (E)-3-(4-((E)-2-Cyclobutyl-1-(3-fluoro-1H-indazol-5-yl)-2-(2-methyl-4-(methylsulfonyl)phenyl)vinyl)phenyl)acrylic acid]	≥ 40%	≤ 100 nM	≤ 100 nM	++ (++ = a single % value ≧ 40%)
CS(=O)(=O)c1ccc(/C(=C(\c2ccc(/C=C/C(=O)O)cc2)c2ccc3[nH]nc(F)c3c2)C2CCC2)c(Cl)c1 [Example 196, (E)-3-(4-((E)-2-(2-Chloro-4-(methylsulfonyl)phenyl)-2-cyclobutyl-1-(3-fluoro-1H-indazol-5-yl)vinyl)phenyl)acrylic acid]	≥ 40%	≤ 100 nM	≤ 100 nM	++ (++ = a single % value ≧ 40%)
CS(=O)(=O)c1ccccc1/C(=C(\c1ccc(/C=C/C(=O)O)cc1)c1ccc2scnc2c1)C1CCC1 [Example 197, (E)-3-(4-((E)-1-(Benzo[d]thiazol-5-yl)-2-cyclobutyl-2-(2-(methylsulfonyl)phenyl)vinyl)phenyl)acrylic acid]	≥ 40%	≤ 100 nM	≤ 100 nM	++ (++ = a single % value ≧ 40%)

Second part, led by results:

Emax (ER-α in MCF-7 cells)	DC50 (ER-α in MCF-7 cells)	IC50 (MCF-7 cells)	Structure (SMILES)	MCF7 Viability Assay Max Response (MCF-7 cells)
≥ 40%	≤ 100 nM	≤ 100 nM	CC/C(=C(/c1ccc(/C=C/C(=O)NCCO)cc1)c1ccc2[nH]ncc2c1)c1ccc(F)cc1Cl [Example 179, (E)-3-(4-((E)-2-(2-Chloro-4-fluorophenyl)-1-(1H-indazol-5-yl)but-1-en-1-yl)phenyl)-N-(2-hydroxyethyl)acrylamide]	++ (++ = a single % value ≧ 40%)
≥ 40%	≤ 100 nM	≤ 100 nM	Cc1cscc1/C(=C(\c1ccc(/C=C/C(=O)NCCO)cc1)c1ccc2scnc2c1)C1CCC1 [Example 180, (E)-3-(4-((E)-1-(Benzo[d]thiazol-5-yl)-2-cyclobutyl-2-(4-methylthiophen-3-yl)vinyl)phenyl)-N-(2-hydroxyethyl)acrylamide]	++ (++ = a single % value ≧ 40%)
≥ 40%	≤ 100 nM	≤ 100 nM	Cc1cscc1/C(=C(\c1ccc(/C=C/C(=O)NCCO)cc1)c1ccc2[nH]nc(F)c2c1)C1CCC1 [Example 181, (E)-3-(4-((E)-2-Cyclobutyl-1-(3-fluoro-1H-indazol-5-yl)-2-(4-methylthiophen-3-yl)vinyl)phenyl)-N-(2-hydroxyethyl)acrylamide]	++ (++ = a single % value ≧ 40%)
≥ 40%	≤ 100 nM	≤ 100 nM	O=C(/C=C/c1ccc(/C(=C(\c2ccccc2)C2CCC2)c2ccc3[nH]nnc3c2)cc1)NCCO [Example 182, (E)-3-(4-((E)-1-(1H-Benzo[d][1,2,3]triazol-5-yl)-2-cyclobutyl-2-phenylvinyl)phenyl)-N-(2-hydroxyethyl)acrylamide]	++ (++ = a single % value ≧ 40%)
≥ 40%	≤ 100 nM	≤ 100 nM	CC/C(=C(/c1ccc(/C=C/C(=O)NC)cc1)c1ccc2scnc2c1)c1ccc(F)cc1Cl [Example 184, (E)-3-(4-((E)-1-(Benzo[d]thiazol-5-yl)-2-(2-chloro-4-fluorophenyl)but-1-en-1-yl)phenyl)-N-methylacrylamid]	++ (++ = a single % value ≧ 40%)
≥ 40%	≤ 100 nM	≤ 100 nM	O=C(/C=C/c1ccc(/C(=C(\c2ccc(F)cc2Cl)C2CCC2)c2ccc3nccn3c2)cc1)NCCO [Example 187, (E)-3-(4-((E)-2-(2-Chloro-4-fluorophenyl)-2-cyclobutyl-1-(imidazo[1,2-a]pyridin-6-yl)vinyl)phenyl)-N-(2-hydroxyethyl)acrylamide]	++ (++ = a single % value ≧ 40%)
≥ 40%	≤ 100 nM	≤ 100 nM	CS(=O)(=O)c1ccccc1/C(=C(\c1ccc(/C=C/C(=O)O)cc1)c1ccc2[nH]nc(F)c2c1)C1CC1 [Example 193, (E)-3-(4-((E)-2-Cyclopropyl-1-(3-fluoro-1H-indazol-5-yl)-2-(2-(methylsulfonyl)phenyl)vinyl)phenyl)acrylic acid]	++ (++ = a single % value ≧ 40%)
≥ 40%	≤ 100 nM	≤ 100 nM	CS(=O)(=O)c1ccccc1/C(=C(\c1ccc(/C=C/C(=O)O)cc1)c1ccc2[nH]nc(F)c2c1)C1CCC1 [Example 194, (E)-3-(4-((E)-2-Cyclobutyl-1-(3-fluoro-1H-indazol-5-yl)-2-(2-(methylsulfonyl)phenyl)vinyl)phenyl)acrylic acid]	++ (++ = a single % value ≧ 40%)
≥ 40%	≤ 100 nM	≤ 100 nM	Cc1cc([S+](C)[O-])ccc1/C(=C(\c1ccc(/C=C/C(=O)O)cc1)c1ccc2[nH]nc(F)c2c1)C1CCC1 (centres unmarked) [Example 198]	++ (++ = a single % value ≧ 40%)

— patent US9499538B2, “Estrogen receptor modulators and uses thereof” (Seragon Pharmaceuticals, Inc., priority 2012, dated 2016)
